From patent US6706740B2, “Fungicidal heterocyclic aromatic amides and their compositions, methods of use and preparation” (Dow AgroSciences LLC, priority 1999, dated 2004)
Like-named read-outs stand apart in the source and are kept apart here.

Experiments:
Ustilago maydis (USTIMA) = assay: microbe, parasite or virus in culture; format: cell-based; conditions: Mycosarcoma maydis, read-out: USTIMA in vitro Growth Inhibition
Septoria tritici—SEPTTR = assay: Leaf Blotch of Wheat, in vivo whole plant, 24 Hour Protectant; conditions: Zymoseptoria tritici, 24 h, control of fungal infection vs untreated plants, read-out: SEPTTR in vivo 1 Day Protectant
Erysiphe graminis—ERYSGT = assay: Powdery Mildew of Wheat, in vivo whole plant, 24 Hour Protectant; conditions: Erysiphe, control of fungal infection vs untreated plants, read-out: ERYSGT in vivo 1 Day Protectant
[1] = system: Puccinia recondita—PUCCRT; assay: Brown Rust of Wheat, in vivo whole plant, 24 Hour Protectant; conditions: control of fungal infection vs untreated plants; for pest or weed control at 100 ppm: Puccinia, read-out: PUCCRT in vivo 1 Day Protectant
[2] = system: Rhizoctonia solani (RHIZSO); assay: microbe, parasite or virus in culture; format: cell-based; conditions: Rhizoctonia solani, read-out: RHIZSO in vitro Growth Inhibition
[3] = system: Stagonospora nodorum (Leptosphaeria nodorum—LEPTNO); assay: In vitro fungal growth inhibition, Stagonospora nodorum (LEPTNO); format: cell-based; conditions: Leptosphaeria, read-out: LEPTNO in vitro Growth Inhibition
[4] = system: Magnaporthe grisea (Pyricularia oryzae—PYRIOR); assay: microbe, parasite or virus in culture; format: cell-based; conditions: Pyricularia oryzae, read-out: PYRIOR in vitro Growth Inhibition
[5] = system: Mycosphaerella graminicola (Septoria tritici—SEPTTR); assay: In vitro fungal growth inhibition, Mycosphaerella graminicola (SEPTTR); format: cell-based; conditions: Zymoseptoria tritici, read-out: SEPTTR in vitro Growth Inhibition
[6] = system: Phytophthora infestans (PHYTIN); assay: microbe, parasite or virus in culture; format: cell-based; conditions: Phytophthora infestans, read-out: PHYTIN in vitro Growth Inhibition
[7] = system: Phytophthora infestans—PHYTIN; assay: whole plant or invertebrate; format: in vivo; conditions: Phytophthora, in Solanum lycopersicum, 24 h, read-out: PHYTIN in vivo 1 Day Protectant
[8] = system: Leptosphaeria nodorum—LEPTNO; assay: Glume Blotch of Wheat, in vivo whole plant, 24 Hour Protectant; conditions: control of fungal infection vs untreated plants; for pest or weed control at 100 ppm: Leptosphaeria, read-out: LEPTNO in vivo 1 Day Protectant
[9] = 100 ppm spray, 24 hour protectant, wheat
[10] = wheat plants sprayed at 100 ppm, inoculated after 24 hours
[11] = 100 ppm spray, wheat, 24 hour protectant

| Structure (SMILES) | inhibition at 25 ppm (Ustilago maydis (USTIMA)) [%] | inhibition at 25 ppm [2] [%] | inhibition at 25 ppm ([3]; 25 ppm in growth medium) [%] | inhibition at 25 ppm [4] [%] | inhibition at 25 ppm ([5]; 25 ppm in growth medium) [%] | inhibition at 25 ppm [6] [%] | pest or weed control at 100 ppm [7] [%] | melting point | pest or weed control at 100 ppm (Septoria tritici—SEPTTR; [10]) [%] | pest or weed control at 100 ppm (Erysiphe graminis—ERYSGT; [10]) [%] | pest or weed control at 100 ppm [1, 10] [%] | inhibition at 25 ppm ([3]; 25 ppm in the growth medium) [%] | inhibition at 25 ppm ([5]; 25 ppm in the growth medium) [%] | pest or weed control at 100 ppm [8, 10] [%] | further results |
| --- | --- | --- | --- | --- | --- | --- | --- | --- | --- | --- | --- | --- | --- | --- | --- |
| COc1ccnc(C(=O)NC2c3ccccc3CC2(C)C)c1O (stereo not drawn) [Compound 284] | < 80 | < 80 | < 80 | < 80 | < 80 | < 80 | < 25 | 122 to 128 °C | – | – | – | – | – | – | pest or weed control at 100 ppm (Septoria tritici—SEPTTR; [9]): 25 to 74%; pest or weed control at 100 ppm (Erysiphe graminis—ERYSGT; [9]): < 25%; pest or weed control at 100 ppm [1, 9]: 25 to 74%; pest or weed control at 100 ppm [8, 9]: 25 to 74% |
| O=C(Nc1ccccc1Oc1ccccc1)c1cccnc1O [Compound 520] | < 80 | < 80 | – | < 80 | – | < 80 | < 25 | 234 to 235 °C | < 25 | < 25 | < 25 | < 80 | < 80 | 25 to 74 | – |
| COc1ccnc(C(=O)NC2CC(C)(C)C(OC(=O)c3ccccc3)C(C)(C)C2)c1O (stereo not drawn) [Compound 268] | < 80 | < 80 | > 80 | < 80 | < 80 | > 80 | < 25 | 175 to 200 °C | – | – | – | – | – | – | pest or weed control at 100 ppm (Septoria tritici—SEPTTR; [9]): 25 to 74%; pest or weed control at 100 ppm (Erysiphe graminis—ERYSGT; [9]): < 25%; pest or weed control at 100 ppm [1, 9]: 25 to 74%; pest or weed control at 100 ppm [8, 9]: 25 to 74% |
| O=C(Nc1ccc(Oc2ccccc2)cc1)c1cccnc1O [Compound 522] | < 80 | < 80 | – | < 80 | – | < 80 | < 25 | 223 to 224 °C | < 25 | < 25 | < 25 | < 80 | < 80 | – | LEPTNO in vivo 1 Day Protectant [8, 10]: + + |
| CC(C)C(=O)O[C@H]1[C@H](C)OC(=O)[C@@H](NC(=O)c2nc(Cl)c(Cl)nc2O)COC(=O)[C@@H]1Cc1ccccc1 [Compound 538] | < 80 | < 80 | – | < 80 | – | < 80 | < 25 | 108 to 110 °C | 25 to 74 | < 25 | 25 to 74 | < 80 | < 80 | 25 to 74 | – |
| COc1ccnc(C(=O)N[C@H]2COC(=O)[C@H](Cc3ccccc3)[C@@H](OC(=O)c3ccccc3)[C@H](C)OC2=O)c1O [Compound 394] | < 80 | < 80 | > 80 | < 80 | > 80 | < 80 | < 25 | 181 to 185 °C | – | – | – | – | – | – | pest or weed control at 100 ppm (Septoria tritici—SEPTTR; [11]): 25 to 74%; pest or weed control at 100 ppm (Erysiphe graminis—ERYSGT; [11]): < 25%; pest or weed control at 100 ppm [1, 11]: 25 to 74%; LEPTNO in vivo 1 Day Protectant [8, 11]: + + |
| COc1ccnc(C(=O)Nc2ccc(OC3CC(C)(C)CC(C)(C)C3)cc2)c1O [Compound 458] | < 80 | < 80 | > 80 | < 80 | < 80 | < 80 | < 25 | 141 to 142 °C | – | – | – | – | – | – | pest or weed control at 100 ppm (Septoria tritici—SEPTTR; [11]): < 25%; pest or weed control at 100 ppm (Erysiphe graminis—ERYSGT; [11]): < 25%; pest or weed control at 100 ppm [1, 11]: 25 to 74%; LEPTNO in vivo 1 Day Protectant [8, 11]: + + |
| CSc1ccnc(C(=O)Nc2ccc(Oc3cccc(C(F)(F)F)c3)cc2)c1O [Compound 479] | < 80 | < 80 | – | < 80 | – | < 80 | < 25 | 129 to 132 °C | 25 to 74 | < 25 | < 25 | < 80 | < 80 | 25 to 74 | – |
| CC1(C)CC(NC(=O)c2nccnc2O)CC(C)(C)C1 [Compound 533] | < 80 | < 80 | – | < 80 | – | < 80 | 25 to 74 | 248 to 250 °C (dec.) | 25 to 74 | < 25 | 25 to 74 | < 80 | < 80 | 25 to 74 | – |
| CSc1nnc(C(=O)Nc2ccc(Oc3cccc(C(F)(F)F)c3)cc2)c(O)n1 [Compound 548] | < 80 | < 80 | – | < 80 | – | < 80 | 25 to 74 | 261 to 265 °C | 25 to 74 | < 25 | < 25 | < 80 | < 80 | 25 to 74 | – |
| Cc1ccc(C(=O)N[C@H]2COC(=O)[C@H](Cc3ccccc3)[C@@H](OC(=O)C(C)C)[C@H](C)OC2=O)c(O)n1 [Compound 525] | < 80 | < 80 | – | < 80 | – | < 80 | < 25 | 247 to 250 °C | 25 to 74 | < 25 | 25 to 74 | < 80 | < 80 | – | LEPTNO in vivo 1 Day Protectant [8, 10]: + + |
| COc1ccnc(C(=O)N[C@H]2C(O)[C@@H]3CC[C@H]2[C@@H]2CCCC[C@@H]23)c1O (stereo partly drawn) [Compound 293] | < 80 | < 80 | < 80 | < 80 | < 80 | < 80 | < 25 | 143 to 160 °C (dec.) | – | – | – | – | – | – | pest or weed control at 100 ppm (Septoria tritici—SEPTTR; [9]): 25 to 74%; pest or weed control at 100 ppm (Erysiphe graminis—ERYSGT; [9]): < 25%; pest or weed control at 100 ppm [1, 9]: < 25%; pest or weed control at 100 ppm [8, 9]: 25 to 74% |
| COc1ccnc(C(=O)Nc2cccc(Oc3ccc(C(F)(F)F)cc3)n2)c1O [Compound 469] | < 80 | < 80 | – | > 80 | – | < 80 | < 25 | 149 to 151 °C | 25 to 74 | < 25 | – | > 80 | < 80 | 25 to 74 | PUCCRT in vivo 1 Day Protectant [1, 10]: + + |
| CSc1ccnc(C(=O)NC2COC(=O)[C@H](Cc3ccccc3)[C@@H](OC(=O)C(C)C)[C@H](C)OC2=O)c1O (stereo partly drawn) [Compound 478] | < 80 | < 80 | – | < 80 | – | < 80 | < 25 | 184 to 187 °C | 25 to 74 | < 25 | 25 to 74 | < 80 | < 80 | 25 to 74 | – |
